Assay results from patent US20130303788A1, “METHOD OF PRODUCING BIPHENOLIC COMPOUND, NOVEL BIPHENYL COMPOUND AND SYNTHESIS METHOD THEREOF, AND PHARMACEUTICAL COMPOSITION FOR TREATING PARKINSON'S DISEASE” (Tzu Chi University, priority 2012, published 2013).

Key:
[1] = tested on: SH-SY5Y human neuroblastoma cells; assay: Effects on oxidative stress (TBHP or CHP), MTT assay; format: cell-based; details: 10 μM for 30 minutes, then CHP 300 μM for 3 hours; vs pathological control; FIG. 9
Protocol: 3-(4,5-Dimethylthiazol-2-yl)-2,5-diphenyltetrazolium bromide (MTT) assay was conducted generally as follows. A MTT solution was added to culture of the cells in the respective well so that a MTT concentration of 0.5 mg/mL was reached, followed by cultivation for 4 hours. The liquid in the respective well was removed, and dimethylsulfoxide (DMSO) was added into the respective well to dissolve formazan dye. Absorbance of the mixture in the respective well at 570 nm (OD570) was measured using an OPTImax microplate reader (Molecular Devices).
The SH-SY5Y human neuroblastoma cells were respectively treated with products 1, 2, 3, 4, 5, 7, and 3,3′-diallyl-biphenyl-4,4′-diol (compound 55) (10 μM) for 30 minutes. 3,3′-diallyl-biphenyl-4,4′-diol (compound 55) was prepared from commercially available 4,4′-biphenol (compound 54) generally according to the method as described in Ablard, F. et al., Bioorg. Med. Chem. Lett. 2007, 17, 4428. Subsequently, the SH-SY5Y human neuroblastoma cells were exposed to cumene hydroperoxide (CHP) or tert-butyl hydroperoxide (TBHP) (300 μM, Riedel-de Haen) for 3 hours after the treatment with the respective biphenolic compound of formula (I).
Cell viability was evaluated as follows. The SH-SY5Y human neuroblastoma cells were subjected to the MTT assay as described in section 1 of General Procedures. The relative cell viability (%) was calculated by substituting the absorbance into the following formula:
where D=relative cell viability • E=OD570 of the pathological control, or the SH-SY5Y human neuroblastoma cells treated with the respective biphenolic compound of formula (I) • F=OD570 of the normal control The obtained data were subjected to the statistical analysis as described in section 5 of General Procedures.

[2] = tested on: iNOS (Inducible Nitric Oxide Synthase); assay: iNOS expression level (iNOS immunohistochemistry) in striatum of 6-OHDA mouse model of PD; format: in vivo, NMRI mice; details: Day 21 after 6-OHDA, FIG. 17
Protocol: The respective NMRI mouse was deeply anaesthetized with thiopental (50 mg/kg, intraperitoneally). The respective NMRI mouse was perfused transcardially with a heparin solution (0.05% heparin in 0.1 M PBS), and was subsequently perfused with 100 mL of ice-cold fixative (4% paraformaldehyde in 0.1 M PBS). The brain of the respective NMRI mouse was removed and was postfixed in the same ice-cold fixative for 12 hours, followed by dehydration in 30% sucrose in 0.1 M PBS. The brain was frozen and was subjected to tissue slicing. Serial coronal sections (a thickness of 20 μm) were cut on a freezing microtome and were placed in PBS. The sections were later processed for free-floating TH or iNOS immunohistochemistry.
The sections were rinsed three times with PBS (30 minutes for each time), were treated with 3% H2O2/10% methanol in PBS for 30 minutes for quenching the endogenous peroxidase activity, and were rinsed three times with PBS. […]
TH expression level in the striatum and the substantia nigra (SN), and iNOS expression level in the striatum were determined according to the method as described in section 4 of General Procedures on Day 21 after the injection of 6-OHDA or the vehicle. […]

[3] = tested on: mouse model of PD (6-OHDA unilateral striatal lesion); assay: Beam walking test, incoordination induced by 6-OHDA; format: in vivo, NMRI mice
Protocol: Product 1 was administered intraperitoneally to NMRI mice at a dose of 5 mg/kg. 30 minutes after the administration of product 1, the NMRI mice were subjected to 6-OHDA injection according to the method as described in section 2 of General Procedures.
NMRI mice into which the vehicle was injected, and which were not treated with product 1 before the injection of the vehicle, served as a sham operated control. NMRI mice that were subjected to 6-OHDA injection and that were not treated with product 1 before the 6-OHDA injection served as a pathological control.
The NMRI mice were subjected to the beam walking test as described in the following subsection 3 on Day 1 and Day 7 after the injection of 6-OHDA or the vehicle. The obtained data were subjected to the statistical analysis as described in section 5 of General Procedures.
NMRI mice were subjected to 6-OHDA injection according to the method as described in section 2 of General Procedures. On Day 7 after the 6-OHDA injection, product 1 was administered intraperitoneally to the NMRI mice at a dose of 5 mg/kg respectively for 7 and 14 consecutive days.
NMRI mice into which a vehicle (saline containing 0.02% ascorbic acid) was injected (generally according to the method as described in section 2 of General Procedures, except that 6-OHDA was not injected), and which were not treated with product 1 after the injection of the vehicle, served as a sham operated control. NMRI mice that were subjected to 6-OHDA injection and that were not treated with product 1 after the 6-OHDA injection served as a pathological control.
The NMRI mice were subjected to the beam walking test as described in the following subsection 3 on Day 14 or Day 21 after the injection of 6-OHDA or the vehicle. The obtained data were subjected to the statistical analysis as described in section 5 of General Procedures.
A beam walking test was conducted under proper conditions, e.g., silence and illumination, so as to evaluate coordination of the respective NMRI mouse. The respective NMRI mouse was placed at a starting point of a beam having a height of 50 cm from a supporting surface, equipped with an escape plateform at each end. […] Before the beam walking test, the respective mouse was trained to walk through the beam for 3 days so that the escape latency thereof was less than 20 seconds. The total travel distance was measured.

[4] = tested on: excitotoxicity induced by excitatory amino acids; details: Lin Yi-Ruu et al. (2006); cited from earlier work
inflammatory pain = details: Lin Yi-Ruu et al. (2007); cited from earlier work

C=CCc1ccc(O)c(-c2ccc(O)c(CC=C)c2)c1 [product 1, 5,3′-Diallyl-biphenyl-2,4′-diol]
prevention of cell death (relative cell viability) after exposure to CHP [1]: significantly prevented cell death | iNOS expression in the striatum, subchronic post-treatment ([2]; 0.5, 1, 5 mg/kg i.p. 14 consecutive days starting Day 7): significantly inhibited iNOS expression in the striatum | relationship between dose and number of iNOS-positive cells in the striatum ([2]; 0.5, 1, 5 mg/kg i.p.): dose-dependent relationship | 14-day post-treatment compared to 7-day post-treatment, motor incoordination ([3]; 5 mg/kg i.p.): more effectively alleviating the motor incoordination | duration of the effect of the pretreatment on motor incoordination ([3]; 5 mg/kg i.p. 30 minutes before 6-OHDA): at least 7 days | motor incoordination (beam walking), pretreatment ([3]; 5 mg/kg i.p. 30 minutes before 6-OHDA, Day 1 and Day 7 after 6-OHDA, FIGS. 18(A), 18(B)): significantly alleviated the motor incoordination | motor incoordination (beam walking), 7-day post-treatment ([3]; 5 mg/kg i.p. for 7 days starting Day 7 after 6-OHDA, tested Day 14, FIG. 19): significantly alleviated the motor incoordination | motor incoordination (beam walking), 14-day post-treatment ([3]; 5 mg/kg i.p. for 14 days starting Day 7 after 6-OHDA, tested Day 21, FIG. 19): significantly alleviated the motor incoordination | neuroprotective effects via anti-oxidative abilities and antagonist actions against excitotoxicity [4]: able to exert neuroprotective effects | alleviation of inflammatory pain in an animal model (inflammatory pain): effective in alleviating inflammatory pain
